pEC50: −log10 of the molar value.

Data set [1] can be described thus: Cytotoxicity against human HuH7 cells after 2 days by XTT assay. It counts as cell-based, Huh-7. On the technique in general: Tetrazolium dyes change colour on reduction, which living cells bring about.
Data set [2] relates to Hepatitis C virus. In words: Antiviral activity against HCV subtype 1a infected in Huh-7 cells assessed as reduction in viral RNA level at 84.4 uM after 8 to 10 days by quantitative PCR analysis. Type of data set: functional, Hepacivirus hominis.
The nature of data set [3]: Selectivity index, ratio of CC50 for human HuH7 cells to EC50 for HCV subtype 1a. The arrangement: species or system Huh-7.
Data set [4] relates to Hepatitis C virus. In words: Antiviral activity against HCV subtype 1a infected in Huh-7 cells assessed as reduction in viral RNA level at 69.4 uM after 8 to 10 days by quantitative PCR analysis. It counts as functional, Hepacivirus hominis.
In data set [5] the test system is Hepatitis C virus. The data set is described as follows: Antiviral activity against HCV subtype 1a infected in Huh-7 cells assessed as reduction in viral RNA level after 8 to 10 days by quantitative PCR analysis. It counts as functional, organism-based, Hepacivirus hominis.
Data set [6] relates to Hepatitis C virus. The data set is described as follows: Antiviral activity against HCV subtype 1a infected in Huh-7 cells assessed as reduction in viral RNA level at 75.2 uM after 8 to 10 days by quantitative PCR analysis. Type of data set: functional, Hepacivirus hominis.
Data set [7] concerns Hepatitis C virus. The data set is described as follows: Antiviral activity against HCV subtype 1a infected in Huh-7 cells assessed as reduction in viral RNA level at 71.4 uM after 8 to 10 days by quantitative PCR analysis. Type of data set: functional, Hepacivirus hominis.
Data set [8] relates to Hepatitis C virus. The data set is described as follows: Antiviral activity against HCV subtype 1a infected in Huh-7 cells assessed as reduction in viral RNA level at 69.7 uM after 8 to 10 days by quantitative PCR analysis. It counts as functional, Hepacivirus hominis.
In data set [9] the test system is Hepatitis C virus. In words: Antiviral activity against HCV subtype 1a infected in Huh-7 cells assessed as reduction in viral RNA level at 79.4 uM after 8 to 10 days by quantitative PCR analysis. Type of data set: functional, Hepacivirus hominis.
The test system of data set [10] is Hepatitis C virus. In words: Antiviral activity against HCV subtype 1a infected in Huh-7 cells assessed as reduction in viral RNA level at 83.3 uM after 8 to 10 days by quantitative PCR analysis. It counts as functional, Hepacivirus hominis.
Data set [11] has as its system Hepatitis C virus. In words: Antiviral activity against HCV subtype 1a infected in Huh-7 cells assessed as reduction in viral RNA level at 35.6 uM after 8 to 10 days by quantitative PCR analysis. It counts as functional, Hepacivirus hominis.
Data set [12] concerns Hepatitis C virus. In words: Antiviral activity against HCV subtype 1a infected in Huh-7 cells assessed as reduction in viral RNA level at 67.7 uM after 8 to 10 days by quantitative PCR analysis. It counts as functional, Hepacivirus hominis.
For data set [13], the system named is Hepatitis C virus. The data set is described as follows: Antiviral activity against HCV subtype 1a infected in Huh-7 cells assessed as reduction in viral RNA level at 66.2 uM after 8 to 10 days by quantitative PCR analysis. Type of data set: functional, Hepacivirus hominis.
In data set [14] the test system is Hepatitis C virus. The data set is described as follows: Antiviral activity against HCV subtype 1a infected in Huh-7 cells assessed as reduction in viral RNA level at 33.1 uM after 8 to 10 days by quantitative PCR analysis in presence of ribavirin. It counts as functional, Hepacivirus hominis.
Data set [15] concerns Hepatitis C virus. The data set is described as follows: Antiviral activity against HCV subtype 1a infected in Huh-7 cells assessed as reduction in viral RNA level at 33.1 uM after 8 to 10 days by quantitative PCR analysis. It counts as functional, Hepacivirus hominis.
Data set [16] concerns Hepatitis C virus. In words: Antiviral activity against HCV subtype 1a infected in Huh-7 cells assessed as reduction in viral RNA level at 69.6 uM after 8 to 10 days by quantitative PCR analysis. It counts as functional, Hepacivirus hominis.
Data set [17] deals with Hepatitis C virus. In words: Antiviral activity against HCV subtype 1a infected in Huh-7 cells assessed as reduction in viral RNA level at 72.9 uM after 8 to 10 days by quantitative PCR analysis. Type of data set: functional, Hepacivirus hominis.
Data set [18] relates to Hepatitis C virus. The data set is described as follows: Antiviral activity against HCV subtype 1a infected in Huh-7 cells assessed as reduction in viral RNA level at 41 uM after 8 to 10 days by quantitative PCR analysis. It counts as functional, Hepacivirus hominis.
The subject of data set [19] is Hepatitis C virus. In words: Antiviral activity against HCV subtype 1a infected in Huh-7 cells assessed as reduction in viral RNA level at 81.9 uM after 8 to 10 days by quantitative PCR analysis. Type of data set: functional, Hepacivirus hominis.

For orientation: CC50 means the concentration that lowers cell viability or growth by half. A word on the inhibition: it is the change of the read-out against control, counted positive when it falls. In the case of `Cc1cn([C@H]2CC=C(C(N)=O)O2)c(=O)[nH]c1=O`, in [1], the CC50 at 48 h is over 1060 µM. For the same compound, the inhibition at 84.4 µM in the data set on Hepatitis C virus [2] came out at 20%. Besides, in data set [3], the “Ratio CC50/EC50” value is given as over 10.
One may read the pEC50 as the negative decadic logarithm of the EC50, by convention in mol/L. Consider `COC(=O)[C@H]1O[C@@H](n2cc(C)c(=O)[nH]c2=O)[C@H](F)[C@@H]1O`, for which the inhibition at 69.4 µM in the data set with Hepatitis C virus [4] was 56%. Besides, the pEC50 in the data set on Hepatitis C virus [5] was 4.36. For the same compound, in data set [1], the CC50 at 48 h was over 868 µM. Further, the “Ratio CC50/EC50” value in data set [3] is over 10.
`[N-]=[N+]=N[C@H]1C[C@H](n2ccc(=O)[nH]c2=O)O[C@@H]1C(N)=O` came in with a CC50 at 48 h in data set [1] of over 940 µM. The inhibition at 75.2 µM with Hepatitis C virus [6] came out at 10%. Moreover, the “Ratio CC50/EC50” value in [3] is reported as over 10.
`Cc1cn([C@H]2C[C@H](N=[N+]=[N-])[C@@H](C(N)=O)O2)c(=O)[nH]c1=O`: the inhibition at 71.4 µM with Hepatitis C virus [7] came to 10%. The compound also gave a CC50 at 48 h in data set [1] of over 893 µM. For the same compound, the “Ratio CC50/EC50” value in [3] is listed as over 10.
Take `CCc1cn([C@@H]2O[C@H](C(N)=O)[C@@H](O)[C@@H]2F)c(=O)[nH]c1=O`: in the data set on Hepatitis C virus [8], the inhibition at 69.7 µM was found to be 20%. In data set [1], the CC50 at 48 h was over 871 µM. For the same compound, the “Ratio CC50/EC50” value in [3] is given as over 10.
Consider `COC(=O)[C@@H]1C=C[C@H](n2cc(C)c(=O)[nH]c2=O)O1`, for which the pEC50 with Hepatitis C virus [5] was 4.30. In the data set with Hepatitis C virus [9], the inhibition at 79.4 µM stood at 58%. For the same compound, the CC50 at 48 h in data set [1] was over 992 µM. In addition, the “Ratio CC50/EC50” value in data set [3] is listed as over 10.
The matching figures for `COC(=O)C1=CC[C@H](n2cc(C)c(=O)[nH]c2=O)O1`: 4.10, 50%, over 992 µM and over 10.
On to `COC(=O)[C@@H]1CC[C@H](n2ccc(=O)[nH]c2=O)O1`, for which the inhibition at 83.3 µM with Hepatitis C virus [10] was determined as 0%. The compound also yielded a 50% cytotoxic concentration (CC50) at 48 h in data set [1] of over 1040 µM. Besides, the “Ratio CC50/EC50” value in [3] is on record as over 10.
Turning to `COC(=O)[C@H]1O[C@@H](n2ccc(=O)[nH]c2=O)C[C@@H]1N=[N+]=[N-]`, the pEC50 in the data set with Hepatitis C virus [5] was 4.45. The inhibition at 35.6 µM with Hepatitis C virus [11] was determined as 54%. In data set [1], the CC50 at 48 h was over 890 µM. The “Ratio CC50/EC50” value in data set [3] is over 10.
For the compound `COC(=O)[C@H]1O[C@@H](n2cc(C)c(=O)[nH]c2=O)C[C@@H]1N=[N+]=[N-]`, the pEC50 in the data set with Hepatitis C virus [5] is 4.47. The inhibition at 67.7 µM with Hepatitis C virus [12] turned out to be 60%. This compound also had a CC50 at 48 h in data set [1] of over 847 µM. For the same compound, in data set [3], the “Ratio CC50/EC50” value is over 10.
On to `CCc1cn([C@@H]2O[C@H](C(=O)OC)[C@@H](O)[C@@H]2F)c(=O)[nH]c1=O`, for which the inhibition at 66.2 µM with Hepatitis C virus [13] was 65%. Besides, in the data set with Hepatitis C virus [5], the pEC50 was 4.48. For the same compound, the “fractional inhibitory concentration index (FICI)” value in the data set with Hepatitis C virus [14] is on record as 0.3. The compound further displayed a CC50 at 48 h in [1] of over 829 µM. In addition, the inhibition at 33.1 µM in the data set on Hepatitis C virus [15] stood at 50%. For the same compound, the “Ratio CC50/EC50” value in data set [3] is reported as over 10.
As for `COC(=O)[C@H]1O[C@@H](n2ccc(=O)[nH]c2=O)[C@H](OC)[C@@H]1O`, the pEC50 in the data set on Hepatitis C virus [5] was 4.16. Also, the inhibition at 69.6 µM in the data set on Hepatitis C virus [16] stood at 53%. In [1], this compound gave a CC50 at 48 h of over 874 µM. In addition, the “Ratio CC50/EC50” value in [3] is on record as over 10.
In the case of `COC(=O)[C@H]1O[C@@H](n2cc(C)c(=O)[nH]c2=O)C[C@@H]1Cl`, in the data set on Hepatitis C virus [4], the inhibition at 69.4 µM stood at 58%. The pEC50 in the data set on Hepatitis C virus [5] is 4.36. Also, in [1], the CC50 at 48 h is over 868 µM. Besides, the “Ratio CC50/EC50” value in data set [3] was over 10.
Regarding `COC(=O)[C@H]1O[C@@H](n2ccc(=O)[nH]c2=O)[C@H](F)[C@@H]1O`, the inhibition at 72.9 µM in the data set with Hepatitis C virus [17] worked out at 43%. For the same compound, in the data set with Hepatitis C virus [5], the pEC50 was under 4.14. The compound also returned a CC50 at 48 h in [1] of over 912 µM. Moreover, the “Ratio CC50/EC50” value in data set [3] was over 10.
Regarding `NC(=O)c1ncn([C@@H]2O[C@H](CO)[C@@H](O)[C@H]2O)n1` [RIBAVIRIN], the inhibition at 41 µM in the data set on Hepatitis C virus [18] stood at 32%. Also, the inhibition at 81.9 µM in the data set with Hepatitis C virus [19] came to 50%. Also, in data set [3], the “Ratio CC50/EC50” value was over 10.
